In experiment [1] the test system is CysLT2R. As to conditions: cited from earlier work; for pAct: CysLT2R, ChEMBL value, ref 29 (ChEMBL).
The test system of experiment [2] is CysLT1R. The settings on record: cited from earlier work; for pAct: CysLT1R, ChEMBL value, ref 29 (ChEMBL).
In experiment [3] the target is T1, wild-type CysLT2R (Homo sapiens, UniProt Q9NS75).
T1 construct: expressed in transfected cells; host or cells: HEK293 (ATCC CRL-1573), transient transfection with Lipofectamine 3000
T1 sequence (Q9NS75 1-346): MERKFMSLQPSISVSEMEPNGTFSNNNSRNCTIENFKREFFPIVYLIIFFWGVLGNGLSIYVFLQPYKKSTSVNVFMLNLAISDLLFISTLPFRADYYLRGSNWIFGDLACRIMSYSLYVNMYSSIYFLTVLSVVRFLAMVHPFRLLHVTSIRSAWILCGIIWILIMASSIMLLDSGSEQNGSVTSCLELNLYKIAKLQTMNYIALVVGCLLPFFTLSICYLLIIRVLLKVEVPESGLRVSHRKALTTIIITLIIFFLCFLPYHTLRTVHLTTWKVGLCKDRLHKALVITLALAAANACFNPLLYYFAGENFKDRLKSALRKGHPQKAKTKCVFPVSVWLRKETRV
Nature of the experiment: IP1 production assay, antagonist mode, LTC4 (EC80) as agonist. As to conditions: HEK293, wild-type CysLT2R; LTC4 at EC80. It is filed as cell-based. How it is done: (§1) All 139 selected compounds were screened in a functional assay measuring IP1 production as an indicator of Gαq activation. For this assay, we used the Cisbio IP-One kit as previously described. Human Embryonic Kidney (HEK) 293 cells (ATCC CRL-1573) between passages 5 and 25 were seeded onto poly-L-Lysine-coated 384-well plates at 20,000 cells/well and transfected with 30 ng of cDNA coding for the wild-type CysLT1R or CysLT2R receptors or for the CysLT2R mutant L129Q, using the Lipofectamine 3000 (Thermo Fisher Scientific) transfection agent. At 48 h post-transfection, the media was removed and the cells were washed with fresh Hank’s Balanced Salt Solution (HBSS). […] First, all 139 selected compounds were screened at a 30 µM concentration in both the agonist and antagonist mode in cells transiently expressing the wildtype CysLT1R or CysLT2R receptors. […] For CysLT1R, the compounds retained were BRI-12328, BRI-12334, BRI-12359, BRI-12410, BRI-12411, BRI-12417, BRI-12424, BRI-12435, BRI-12450, and BRI-12458; for CysLT2R, these were BRI-12328, BRI-12334, BRI-12359, BRI-12401, BRI-12402, BRI-12405, BRI-12410, BRI-413, BRI-12417, BRI-12424, BRI-426, BRI-427, BRI-450, BRI-453, BRI-454, BRI-458, and BRI-466. These hits were again tested in the antagonist mode with compound concentrations ranging from 1.56 µM to 100 µM, at 2-fold concentration intervals. The three best hits (BRI-12359, BRI-417, and BRI-424) were also tested using the LTC4 ligand (EC80 concentration) and in cells transiently expressing the constitutively active CysLT2R mutant L129Q. […] After compound stimulation, the cells were incubated for 1 h at 37 °C and stimulated with IP1-D2 and Ab-Crypt reagents in Lysis Buffer. The cells were then incubated at room temperature for an additional hour. The plate was read on a Tecan Genios Pro plate reader using a HTRF (homogeneous time-resolved fluorescence) filter set (λex = 320 nm, λem = 620 and 655 nm). Normalized data were plotted using either the three-parameter or four-parameter EC50/IC50 fits of GraphPad Prism 8 (San Diego). […] Data represent the means ± SEM of at least three independent experiments performed in quadruplicate. For the additional antagonist experiments performed with BRI-12359, we performed Schild analysis in order to determine pA2 values.

Experiment [4] deals with T2, wild-type CysLT1R (Homo sapiens, UniProt Q9Y271).
T2 construct: expressed in transfected cells; host or cells: HEK293 (ATCC CRL-1573), transient transfection with Lipofectamine 3000
T2 sequence (Q9Y271 1-337): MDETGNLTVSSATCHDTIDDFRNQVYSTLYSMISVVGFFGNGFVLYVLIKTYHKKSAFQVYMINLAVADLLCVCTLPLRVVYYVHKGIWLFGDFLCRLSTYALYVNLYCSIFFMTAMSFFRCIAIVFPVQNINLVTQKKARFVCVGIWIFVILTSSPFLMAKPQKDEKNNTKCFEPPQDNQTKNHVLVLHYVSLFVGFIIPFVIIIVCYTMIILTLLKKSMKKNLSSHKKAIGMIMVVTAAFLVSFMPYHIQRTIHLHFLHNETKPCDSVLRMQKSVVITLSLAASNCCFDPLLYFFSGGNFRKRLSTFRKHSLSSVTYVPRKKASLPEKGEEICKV
The experiment is described as above. The settings on record: HEK293, wild-type CysLT1R, LTC4 at EC80; for Ki: functional Ki by Cheng-Prusoff, read-out: CysLT1R (LTC4) Ki ± SEM. The class given is cell-based. How it is done: as §1

Experiment [5] has as its target T3, CysLT2R mutant L129Q (Homo sapiens, UniProt Q9NS75, L129Q).
T3 construct: expressed in transfected cells; host or cells: HEK293 (ATCC CRL-1573), transient transfection with Lipofectamine 3000
T3 sequence (Q9NS75 1-346 L129Q): T1 sequence (Q9NS75 1-346) with L129Q
Nature of the experiment: IP1 production assay, constitutively active mutant, direct compound stimulation (inverse agonism). It is filed as cell-based. As to conditions: HEK293 transiently expressing CysLT2R L129Q; for % max inhibition ± SEM of constitutive IP1 accumulation: WT non-stimulated = 0%, L129Q non-stimulated = 100%. As for the experimental part: as §1
This effect would be particularly interesting in the case of the L129Q CysLT2R mutant identified in uveal melanoma patients. We tested these three compounds in the functional IP1 assay using cells transiently expressing the L129Q CysLT2R mutant, directly stimulated with a range of compound concentrations (1.6 to 100 μM).

The target of experiment [6] is T1, wild-type CysLT2R. Nature of the experiment: IP1 production assay, antagonist mode, co-stimulation with EC80 LTD4. The class given is cell-based. The settings on record: for inhibition at 30 µM: HEK293, compound 30 µM, LTD4 at EC80, HEK293, wild-type CysLT2R, read-out: inhibition of LTD4-induced IP1 production, single-concentration screen; for Emax: HEK293, read-out: CysLT2R (LTD4) % Max Inhibition ± SEM.

Experiment [7] concerns the target T2, wild-type CysLT1R. The experiment is described as above. The class given is cell-based. The settings on record: for inhibition at 30 µM: HEK293, compound 30 µM, LTD4 at EC80, HEK293, wild-type CysLT1R, read-out: inhibition of LTD4-induced IP1 production, single-concentration screen; for Emax: HEK293, read-out: CysLT1R (LTD4) % Max Inhibition ± SEM; for extent of inhibition of LTD4-mediated response at CysLT1R (in words): antagonist mode, 1.5 to 100 µM.

Positions count from the first letter of the chain named. Where “and” joins values, the source holds several entries; their conditions need not be identical. Equal values may be shown once. A value given as a limit tells only on which side of the number the result lay.

`O=C(O)CCCN1CC(C(=O)NS(=O)(=O)c2ccccc2)Oc2c(NC(=O)c3ccc(OCCCCc4ccccc4)cc3)cccc21` (stereo not shown) [CHEMBL3401691, C(CCOc1ccc(cc1)C(Nc1cccc2c1OC(CN2CCCC(O)=O)C(NS(c1ccccc1)(=O)=O)=O)=O)Cc1ccccc1]: the pAct in experiment [1] is 8.2.
Take `O=C(O)CCCN1CC(C(=O)O)Oc2c(C=Cc3ccc(OCCCCOc4ccccc4)cc3)cccc21` (stereo not shown) [CHEMBL3403187, C(CC(O)=O)CN1CC(C(O)=O)Oc2c(C=Cc3ccc(cc3)OCCCCOc3ccccc3)cccc12]: in experiment [1], the pAct is listed as 9.5.
Regarding `O=C(O)CCCN1CC(c2nnn[nH]2)Oc2c(C=Cc3ccc(OCCCCc4ccccc4)cc3)cccc21` (stereo not shown) [CHEMBL3403186, C(CCOc1ccc(C=Cc2cccc3c2OC(CN3CCCC(O)=O)c2nnn[nH]2)cc1)Cc1ccccc1], the pAct is recorded as 8.5 in experiment [1] and 9.2 in experiment [2].
For `O=C(O)CCCN1CC(C(=O)O)Oc2c(C=Cc3ccc(OCCCCc4ccccc4)cc3)cccc21` (stereo not shown) [CHEMBL3401687, C(CCOc1ccc(C=Cc2cccc3c2OC(CN3CCCC(O)=O)C(O)=O)cc1)Cc1ccccc1], the pAct in experiment [1] is given as 8.2.
As for `O=C(O)CCCc1cn(CC(=O)O)c2c(C=Cc3ccc(OCCCCOc4ccccc4)cc3)cccc12` [CHEMBL3597522, C(CC(O)=O)Cc1cn(CC(O)=O)c2c(C=Cc3ccc(cc3)OCCCCOc3ccccc3)cccc12], the pAct in experiment [1] is 8.2.
With `O=C(O)CCCN1C[C@@H](C(=O)O)Oc2c(NC(=O)c3ccc(OCCCCc4ccccc4)cc3)cccc21` [CHEMBL3342964, C(CCOc1ccc(cc1)C(Nc1cccc2c1O[C@@H](CN2CCCC(O)=O)C(O)=O)=O)Cc1ccccc1], the pAct in experiment [1] was 9.1.
`NC(=O)c1ccccc1Oc1ccc(NC(=O)c2ccc3nc(C(F)(F)F)cn3c2)cc1` [BRI-12417]: in experiment [3], the “CysLT2R (LTC4) % Max Inhibition ± SEM” value stood at 32 ± 5%. In addition, in experiment [4], the “CysLT1R (LTC4) % Max Inhibition ± SEM” value was found to be 83 ± 14%; the Ki was 700 nM and 680 nM. Also, in experiment [5], the “% max inhibition ± SEM of constitutive IP1 accumulation” value is reported as 59 ± 12%. In experiment [5] (compound 1.6 to 100 μM, no agonist, read-out: IC50 ± SEM, inhibition of constitutive IP1 accumulation), the IC50 was 30000 to 40000 nM and 38000 nM. In addition, in experiment [6], the remaining activity at 30 µM is 74.4%, the inhibition at 30 µM is below 50% and the Emax is 54 ± 6%. In experiment [7], the Ki amounted to 3100 ± 630 nM, the remaining activity at 30 µM turned out to be 54.7%, the inhibition at 30 µM was at least 50% and the Emax turned out to be 100 ± 17%. The “extent of inhibition of LTD4-mediated response at CysLT1R (in words)” value in experiment [7] is reported as “completely inhibit”.
In the case of `O=C(O)c1ccc(OCCCc2ccc(OCCCCOc3ccccc3)cc2)c(C(=O)NC2CCCC(C(=O)O)C2)c1` (stereo not shown) [CHEMBL3342945], the 50% inhibitory concentration (IC50) in experiment [1] (activity of the ligand from ChEMBL, ref ChEMBL, read-out: IC50 (CysLT2)) is 53 nM.
Regarding `O=C(O)CCCN1CC(c2nn[nH]n2)Oc2c(NC(=O)c3ccc(OCCCCc4ccccc4)cc3)cccc21` (stereo not shown) [CHEMBL3401689, C(CCOc1ccc(cc1)C(Nc1cccc2c1OC(CN2CCCC(O)=O)c1nn[nH]n1)=O)Cc1ccccc1], the pAct in experiment [1] is reported as 9.3.
For the compound `CCCCCC=CCC=CC=CC=C[C@@H](SC[C@H](N)C(=O)NCC(=O)O)[C@@H](O)CCCC(=O)O` [CHEMBL288943, CCCCCC=CCC=CC=CC=C[C@H]([C@H](CCCC(O)=O)O)SC[C@@H](C(NCC(O)=O)=O)N], the pAct in experiment [2] is 9.5.
As for `CCCC(CCc1nnn[nH]1)Cc1ccc(OCc2ccc3ccccc3n2)cc1` (stereo not shown) [CHEMBL97356, CCCC(CCc1nnn[nH]1)Cc1ccc(cc1)OCc1ccc2ccccc2n1], in experiment [2], the pAct is reported as 8.0.
In the case of `COc1cccc2c(C=CC(=O)Nc3cccc(C=Cc4ccc5ccc(Cl)cc5n4)c3)c(C(=O)O)[nH]c12` [CHEMBL3810210, COc1cccc2c(C=CC(Nc3cccc(C=Cc4ccc5ccc(cc5n4)[Cl])c3)=O)c(C(O)=O)[nH]c12], the pAct in experiment [2] was 8.2.
As to `CC(C)(O)c1ccc(CC[C@@H](SCC2(CC(=O)O)CC2)c2cccc(C=Cc3ccc4sc(Cl)c(Cl)c4n3)c2)cc1` [CHEMBL313187, CC(C)(c1ccc(CC[C@H](c2cccc(C=Cc3ccc4c(c(c(s4)[Cl])[Cl])n3)c2)SCC2(CC2)CC(O)=O)cc1)O], in experiment [2], the pAct was 9.4.
`O=C(O)c1[nH]c2ccccc2c1C(=O)Nc1cccc(/C=C/c2ccc3ccc(Cl)cc3n2)c1` [CHEMBL3809164]: the half-inhibitory concentration (IC50) in experiment [2] (activity of the ligand from ChEMBL, ref ChEMBL, read-out: IC50 (CysLT1)) was 35 nM.
As to `Cn1c(-c2ccc(NC(=O)c3cccc(OCC(=O)O)c3)cc2)nc2ccccc21` [BRI-12424], the “CysLT2R (LTC4) % Max Inhibition ± SEM” value in experiment [3] came out at 9 ± 5%. In addition, in experiment [4], the “CysLT1R (LTC4) % Max Inhibition ± SEM” value is reported as 52 ± 9% and the inhibition constant Ki came to 180 ± 30 nM. Moreover, in experiment [5], the “% max inhibition ± SEM of constitutive IP1 accumulation” value was 21 ± 10%. Further, in experiment [6], the remaining activity at 30 µM was determined as 79.7%, the inhibition at 30 µM is below 50% and the Emax worked out at 7 ± 5%. In experiment [7], the Ki was determined as 220 ± 30 nM, the remaining activity at 30 µM was determined as 50.8%, the inhibition at 30 µM is at least 50% and the Emax came out at 71 ± 19%. Moreover, the “extent of inhibition of LTD4-mediated response at CysLT1R (in words)” value in experiment [7] is listed as “partial antagonism”.
With `O=C(O)CCCN1CC(C(=O)O)Oc2c(NC(=O)c3ccc(OCCCCCc4ccccc4)cc3)cccc21` (stereo not shown) [CHEMBL3342959, C(CCc1ccccc1)CCOc1ccc(cc1)C(Nc1cccc2c1OC(CN2CCCC(O)=O)C(O)=O)=O], the pAct in experiment [1] was 9.2.

Source of the values: PMC7761830, “Structure-Based Virtual Screening of Ultra-Large Library Yields Potent Antagonists for a Lipid GPCR” (Biomolecules, 2020).
